Legend:
[1] = test system: IgA immune complex induced lung injury; assay: IgA immune complex-induced acute lung injury in the rat; assay type: in vivo, rat (male Long-Evans)
Experimental: Groups of rats were dosed with either vehicle, SLN-OH (100 μpg), or with SLX-OH (100 μg) […] post induction of inflammation. Each bar represents the mean of 6 animals and vertical lines represent the standard error of the mean.
Adult male (300 g) specific pathogen-free Long-Evans rats purchased from Charles River Labs (Portage, Mich.) were employed in the studies. For the induction of IgG immune complex pulmonary inflammation rabbit polyclonal IgG rich in antibody to bovine serum albumin (antiBSA) was purchased from Organon Teknika (Westchester, PA). Intraperitoneal ketamine (10 mg/Kg) was administered for anesthesia. 2.5 mg of anti-BSA in a volume of 300 μl was instilled intratracheally via a small intratracheal catheter during inspiration after surgical exposure of the trachea. Intravenous injection of 10 mg BSA was injected intravenously to generate immune complex formation. Trace amounts of ^125 I-BSA and ^51 Cr-RBC were administered with the BSA as markers for plasma and RBC extravasation respectively. Rats were sacrificed 4 h later and lung injury was assessed by the ratio of radiolabelled albumin in the lungs relative to the circulation (permeability), the ratio of RBC in the lungs relative to the circulation (hemorrhage) and the amount of myeloperoxidase activity in a lung homogenate (neutrophil accumulation). For induction of IgA immune complex induced lung injury 1.2 mg of a murine myeloma IgA protein specific for dinitrophenol (DNP) was instilled intratracheally and 3.3 mg DNP-bovine serum albumin injected intravenously. Lung injury was assessed in the same manner described for IgG-induced lung injury.
SLX-OH, Z, the non-fucosylated control oligosaccharide SLN, or an equivalent volume of PBS were injected intravenously in three equally divided doses at 2, 2.5, and 3 h following deposition of immune complexes. This schedule for injections was selected since it coincides with the time during which rapid expression of E-selectin occurs in the pulmonary vasculature.

[2] = test system: IgG immune complex-induced acute lung injury; assay: IgG immune complex-induced acute lung injury in the rat; assay type: in vivo, rat (male Long-Evans); details: conclusion in words
[3] = test system: CVF-induced acute lung injury; assay: Cobra venom factor (CVF)-induced acute lung injury in the rat; assay type: in vivo; details: 200 μg prior to CVF (FIG. 16: 0.6 mg/Kg)
Experimental: Groups of rats were pretreated with either vehicle, SLN-OH (0.6 mg/Kg), or with SLX-OH (0.6 mg/Kg) 5 minutes prior to administration of either CVF or PBS. Each bar represents the mean of 6 animals and vertical lines represent the standard error of the mean.
Groups of rats were pretreated with either vehicle or Z at the indicated doses 5 minutes prior to administration of CVF or PBS. Each point represents the mean of 6 animals and vertical lines represent the standard error of the mean.
The intravenous injection of CVF produces intravascular complement activation which results in lung injury, defined as an increase in neutrophil accumulation within the lung, an increase in pulmonary vascular permeability and in lung hemorrhage. It is likely that intravascular complement activation results in the generation of a wide range of inflammatory mediators. Of particular relevance to the studies described here is generation of the split fifth complement component, C5a, which can stimulate the release of histamine from circulating basophils and tissue mast cells. […] The expression of selectins, including P-selectin, is a necessary first step in the process of leukocyte adherence to vascular endothelium.
Animals were dosed with different oligosaccharide preparations or phosphate buffered saline (PBS) five minutes before administration of cobra venom factor (20 units/Kg, i.v.). Included in this material was an aliquot of ^125 I-bovine serum albumin (0.5 μCi) and ^51 Cr labelled autologous red blood cells (0.5 μCi) for measuring plasma extravasation and hemorrhage respectively. Thirty minutes after administration of the cobra venom factor the animals were anesthetized with ketamine hydrochloride (10 mg/Kg) and exsanguinated via the posterior vena cava. The lung vasculature was then perfused through the right cardiac ventricle with 10 mL of PBS. The lungs were removed and the amount of radioactivity remaining within the tissue assessed with a gamma scintillation counter. Increased pulmonary vascular permeability was measured as the ratio of ^125 I in lung tissue compared with the amount present in 1 mL of venous blood obtained at the time of death. Lung hemorrhage was measured as the ratio of ^51 Cr in lung tissue compared with the amount present in 1 mL of venous blood obtained at the time of death. Neutrophil accumulation in lungs was determined by measuring the myeloperoxidase activity of lungs homogenized in PBS. Myeloperoxidase activity in lung supernatants was assayed by measuring the change in absorbance at 460 nm resulting from decomposition of H2 O2 in the presence of o-dianisidine

## CC(=O)N[C@H]1[C@H]([C@H](O)[C@H](O)CO)O[C@@](O[C@H]2[C@@H](O)[C@@H](CO)O[C@@H](O[C@H]3[C@H](O[C@@H]4O[C@@H](C)[C@@H](O)[C@@H](O)[C@@H]4O)[C@@H](NC(C)=O)C(O)O[C@@H]3CO)[C@@H]2O)(C(=O)O)C[C@@H]1O (stereo partly drawn) [SLX-OH, NeuAcα2,3Gal,β1 4(Fucα1,3)GlcNAc-OH]
[1]; FIG. 20, 100 μg
  protection assessed by vascular permeability and hemorrhage: did not afford any protection from IgA immune complex induced lung injury
[1]; conclusion in words
  effect on IgA immune complex-induced neutrophil accumulation and pathological sequelae: not IgA
[2]
  effect on IgG immune complex-induced neutrophil accumulation / lung injury: blocked IgG
[3]; P<0.001
  reduction of permeability value: 43%
[3]; P<0.004
  reduction of hemorrhage: 41%
[3]; P<0.006
  reduction of MPO content: 35%

— patent publication US5753631A, “Intercellular adhesion mediators” (Cytel Corporation, priority 1995, dated 1998)
